Measured values reported in ChEMBL document CHEMBL1201862, “PubChem BioAssay data set” (2004).
Values joined by “and” are separate entries in the source; they are usually repeats but may differ in a detail not shown here. Equal entries are not always repeated.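 Five compound concentrations were applied to cells in 96-well plates for 48 hours; endpoints were derived by simple linear interpolation of the resulting dose-response curve. Abbreviation: GI50, concentration required for 50% inhibition of growth.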 Active and inactive are the calls of the source. Cut-off read from the data, not from the text of the source: active = GI50 up to about 1.1 µM and inactive = higher. Peptide text beside a SMILES is read from it. * marks the point of attachment. Fmoc = O=C(OCC1c2ccccc2-c2ccccc21)*; Boc = CC(C)(C)OC(=O)*; OtBu = CC(C)(C)O*

What was measured:
Assay in all cases: NCI tumour cell line growth inhibition, 48 h
EKVX = tested on: EKVX
TK-10 = tested on: TK-10
HT-29 = tested on: HT-29
A549 = tested on: A549
M14 = tested on: M14
Hs-578T = tested on: Hs-578T
Malme-3M = tested on: Malme-3M
MCF7 = tested on: MCF7
HL-60 = tested on: HL-60
MDA-MB-435 = tested on: MDA-MB-435
SF-268 = tested on: SF-268
UACC-62 = tested on: UACC-62
HCC 2998 = tested on: HCC 2998
SK-MEL-5 = tested on: SK-MEL-5
SK-MEL-2 = tested on: SK-MEL-2
CAKI-1 = tested on: CAKI-1
DU-145 = tested on: DU-145
RXF 393 = tested on: RXF 393
CCRF-CEM = tested on: CCRF-CEM
T47D = tested on: T47D
UO-31 = tested on: UO-31
U-251 = tested on: U-251
NCI-H23 = tested on: NCI-H23
SK-OV-3 = tested on: SK-OV-3
NCI-H226 = tested on: NCI-H226
MDA-MB-231 = tested on: MDA-MB-231
LOX IMVI = tested on: LOX IMVI
OVCAR-4 = tested on: OVCAR-4
MOLT-4 = tested on: MOLT-4
MDA-N = tested on: MDA-N
BT-549 = tested on: BT-549
SR = tested on: SR
ACHN = tested on: ACHN
OVCAR-3 = tested on: OVCAR-3
SN12C = tested on: SN12C
HOP-62 = tested on: HOP-62
HCT-116 = tested on: HCT-116
RPMI-8226 = tested on: RPMI-8226
SNB-19 = tested on: SNB-19
A498 = tested on: A498
SK-MEL-28 = tested on: SK-MEL-28
SF-539 = tested on: SF-539
OVCAR-5 = tested on: OVCAR-5
HCT-15 = tested on: HCT-15
UACC-257 = tested on: UACC-257
K562 = tested on: K562
NCI-H460 = tested on: NCI-H460
KM12 = tested on: KM12
IGROV-1 = tested on: IGROV-1
786-0 = tested on: 786-0
SNB-75 = tested on: SNB-75
SF-295 = tested on: SF-295
NCI-H522 = tested on: NCI-H522
HOP-92 = tested on: HOP-92
OVCAR-8 = tested on: OVCAR-8
NCI/ADR-RES = tested on: NCI/ADR-RES
COLO 205 = tested on: COLO 205
PC-3 = tested on: PC-3
SW-620 = tested on: SW-620

Cc1c(-c2ccccc2)[nH]c2cc(Cl)ccc2c1=O
GI50 (EKVX): > 100 µM (inactive)
GI50 (TK-10): 38 µM (inactive)
GI50 (HT-29): > 100 µM (inactive)
GI50 (A549): 1.96 µM (inactive)
GI50 (M14): 76.2 µM (inactive)
GI50 (Hs-578T): 14.8 µM (inactive)
GI50 (Malme-3M): 65 µM (inactive)
GI50 (MCF7): 37 µM (inactive)
GI50 (HL-60): 23.1 µM (inactive)
GI50 (MDA-MB-435): 12 µM (inactive)
GI50 (SF-268): 33.5 µM (inactive)
GI50 (UACC-62): 54.6 µM (inactive)
GI50 (HCC 2998): > 100 µM (inactive)
GI50 (SK-MEL-5): 35.1 µM (inactive)
GI50 (SK-MEL-2): 37.8 µM (inactive)
GI50 (CAKI-1): 29.2 µM (inactive)
GI50 (DU-145): > 100 µM (inactive)
GI50 (RXF 393): 18.6 µM (inactive)
GI50 (CCRF-CEM): > 100 µM (inactive)
GI50 (T47D): > 100 µM (inactive)
GI50 (UO-31): 0.0135 µM (active)
GI50 (U-251): 25.8 µM (inactive)
GI50 (NCI-H23): 36.3 µM (inactive)
GI50 (SK-OV-3): 39.4 µM (inactive)
GI50 (NCI-H226): 21.1 µM (inactive)
GI50 (MDA-MB-231): 70.8 µM (inactive)
GI50 (LOX IMVI): 89.5 µM (inactive)
GI50 (OVCAR-4): 22.9 µM (inactive)
GI50 (MOLT-4): > 100 µM (inactive)
GI50 (MDA-N): 10.2 µM (inactive)
GI50 (BT-549): > 100 µM (inactive)
GI50 (SR): 18.7 µM (inactive)
GI50 (ACHN): 55.8 µM (inactive)
GI50 (OVCAR-3): 56.9 µM (inactive)
GI50 (SN12C): > 100 µM (inactive)
GI50 (HOP-62): 23 µM (inactive)
GI50 (HCT-116): 23.8 µM (inactive)
GI50 (RPMI-8226): > 100 µM (inactive)
GI50 (SNB-19): 52.8 µM (inactive)
GI50 (A498): > 100 µM (inactive)
GI50 (SK-MEL-28): 71.9 µM (inactive)
GI50 (SF-539): 39.8 µM (inactive)
GI50 (OVCAR-5): > 100 µM (inactive)
GI50 (HCT-15): 17.2 µM
GI50 (UACC-257): 49.2 µM (inactive)
GI50 (K562): 16.4 µM (inactive)
GI50 (NCI-H460): 631 nM (active)
GI50 (KM12): 0.74 µM (active)

CC(C)(C)OC(=O)CCC(NC(=O)OCC1c2ccccc2-c2ccccc21)C(=O)NC(Cc1c[nH]c2ccccc12)C(=O)NC(CCCCNC(=O)OC(C)(C)C)C(=O)N1CCCC1C(=O)NCC(N)=O (stereo not drawn) (Fmoc-E(OtBu)WK(Boc)PG-NH2; configuration not given here)
GI50 (IGROV-1): 31.2 µM (inactive) and 16 µM (inactive)
GI50 (HT-29): > 100 µM (inactive) and 58.3 µM (inactive)
GI50 (786-0): 20.7 µM (inactive) and 17.5 µM (inactive)
GI50 (M14): 22.4 µM (inactive) and 39.7 µM (inactive)
GI50 (Hs-578T): 17.3 µM (inactive) and 28.4 µM (inactive)
GI50 (Malme-3M): 19.7 µM (inactive) and 31 µM (inactive)
GI50 (MCF7): 24.9 µM (inactive) and 26.5 µM (inactive)
GI50 (SNB-75): 23.3 µM (inactive) and 16 µM (inactive)
GI50 (UACC-62): 15 µM (inactive) and 17 µM (inactive)
GI50 (HCC 2998): 66.7 µM (inactive) and 34.8 µM (inactive)
GI50 (SK-MEL-5): 32 µM (inactive) and 16.2 µM (inactive)
GI50 (SK-MEL-2): 18.2 µM (inactive) and 19.7 µM (inactive)
GI50 (RXF 393): 22.2 µM (inactive) and 15 µM (inactive)
GI50 (T47D): 63.2 µM (inactive) and 52.5 µM (inactive)
GI50 (U-251): 17.3 µM (inactive) and 17.2 µM (inactive)
GI50 (SF-295): 34.8 µM (inactive) and 26.2 µM (inactive)
GI50 (MDA-MB-231): 15.6 µM (inactive) and 12.6 µM (inactive)
GI50 (LOX IMVI): 22.5 µM (inactive) and 12.2 µM (inactive)
GI50 (OVCAR-4): 12.9 µM (inactive) and 17.2 µM (inactive)
GI50 (MOLT-4): 28.2 µM (inactive) and 24.4 µM (inactive)
GI50 (MDA-N): 17.8 µM (inactive) and 25.5 µM (inactive)
GI50 (BT-549): 16 µM (inactive) and 19.5 µM (inactive)
GI50 (SR): 26.5 µM (inactive) and 41.7 µM (inactive)
GI50 (ACHN): 17.7 µM (inactive) and 16.4 µM (inactive)
GI50 (OVCAR-3): 19.4 µM (inactive) and 16.8 µM (inactive)
GI50 (RPMI-8226): 17.4 µM (inactive) and 34.4 µM (inactive)
GI50 (NCI-H522): 1.62 µM (inactive)
GI50 (SNB-19): 19.6 µM (inactive) and 26.9 µM (inactive)
GI50 (HOP-92): 18.5 µM (inactive) and 17.6 µM (inactive)
GI50 (SK-MEL-28): 48.1 µM (inactive) and 43.4 µM (inactive)
GI50 (SF-539): 35.6 µM (inactive) and 63.7 µM (inactive)
GI50 (OVCAR-8): 34.6 µM (inactive) and 17.8 µM (inactive)
GI50 (K562): 30.1 µM (inactive) and 42.5 µM (inactive)
GI50 (NCI-H460): 25.9 µM (inactive) and 16.4 µM (inactive)

Cc1cc(NN)nc2[nH]nc(N)c12
GI50 (IGROV-1): > 100 µM (inactive)
GI50 (EKVX): > 100 µM (inactive)
GI50 (TK-10): > 100 µM (inactive)
GI50 (NCI/ADR-RES): > 100 µM (inactive)
GI50 (HT-29): > 100 µM (inactive)
GI50 (786-0): > 100 µM (inactive)
GI50 (COLO 205): > 100 µM (inactive)
GI50 (A549): > 100 µM (inactive)
GI50 (M14): > 100 µM (inactive)
GI50 (Hs-578T): > 100 µM (inactive)
GI50 (PC-3): > 100 µM (inactive)
GI50 (Malme-3M): > 100 µM (inactive)
GI50 (MCF7): > 100 µM (inactive)
GI50 (MDA-MB-435): 93.1 µM (inactive)
GI50 (SF-268): > 100 µM (inactive)
GI50 (SNB-75): > 100 µM (inactive)
GI50 (UACC-62): > 100 µM (inactive)
GI50 (SK-MEL-5): > 100 µM (inactive)
GI50 (SK-MEL-2): > 100 µM (inactive)
GI50 (CAKI-1): > 100 µM (inactive)
GI50 (DU-145): > 100 µM (inactive)
GI50 (RXF 393): > 100 µM (inactive)
GI50 (CCRF-CEM): > 100 µM (inactive)
GI50 (T47D): > 100 µM (inactive)
GI50 (UO-31): > 100 µM (inactive)
GI50 (U-251): > 100 µM (inactive)
GI50 (NCI-H23): > 100 µM (inactive)
GI50 (SK-OV-3): > 100 µM (inactive)
GI50 (NCI-H226): > 100 µM (inactive)
GI50 (SF-295): > 100 µM (inactive)
GI50 (SW-620): > 100 µM (inactive)
GI50 (MDA-MB-231): 45.4 µM (inactive)
GI50 (LOX IMVI): > 100 µM (inactive)
GI50 (OVCAR-4): > 100 µM (inactive)
GI50 (MOLT-4): 43.3 µM (inactive)
GI50 (BT-549): > 100 µM (inactive)
GI50 (SR): 69.5 µM (inactive)
GI50 (ACHN): > 100 µM (inactive)
GI50 (OVCAR-3): > 100 µM (inactive)
GI50 (SN12C): > 100 µM (inactive)
GI50 (HOP-62): > 100 µM (inactive)
GI50 (HCT-116): > 100 µM (inactive)
GI50 (RPMI-8226): > 100 µM (inactive)
GI50 (NCI-H522): > 100 µM (inactive)
GI50 (SNB-19): > 100 µM (inactive)
GI50 (HOP-92): > 100 µM (inactive)
GI50 (A498): > 100 µM (inactive)
GI50 (SK-MEL-28): > 100 µM (inactive)
GI50 (SF-539): > 100 µM (inactive)
GI50 (OVCAR-5): > 100 µM (inactive)
GI50 (OVCAR-8): > 100 µM (inactive)
GI50 (HCT-15): > 100 µM
GI50 (UACC-257): > 100 µM (inactive)
GI50 (K562): > 100 µM (inactive)
GI50 (NCI-H460): > 100000 nM (inactive)
GI50 (KM12): > 100 µM (inactive)
